Like-named read-outs stand apart in the source and are kept apart here.
Experiments:
collagenase (MMP-1) = target: T1, collagenase (MMP-1) (Homo sapiens, UniProt P03956); assay: MMP-1 enzyme inhibition assay (coumarin-labelled peptide substrate McaPLGLDpaAR); type: biochemical
T1 sequence (P03956 100-469): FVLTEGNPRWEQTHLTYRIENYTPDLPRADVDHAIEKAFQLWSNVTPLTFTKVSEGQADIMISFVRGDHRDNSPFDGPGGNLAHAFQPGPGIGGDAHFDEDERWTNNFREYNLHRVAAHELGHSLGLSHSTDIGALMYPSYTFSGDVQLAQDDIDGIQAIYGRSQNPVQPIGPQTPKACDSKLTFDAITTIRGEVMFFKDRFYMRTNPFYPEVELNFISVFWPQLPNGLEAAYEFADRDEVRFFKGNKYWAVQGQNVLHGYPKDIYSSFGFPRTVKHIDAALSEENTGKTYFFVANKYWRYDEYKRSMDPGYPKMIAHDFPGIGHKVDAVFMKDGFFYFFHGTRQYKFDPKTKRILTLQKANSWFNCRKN
Protocol: (§1) Stock solutions were made up as follows: Assay Butter: 100 mM Tris-HCl pH 7.6 is containing 100 mM NaCl, 10 mM CaCl2, and 0.05% Brij 35.
(§2) Substrate: 0.4 mM McaPLGLDpaAR (from Bachem) (0.437 mg/ml) stock solution in 100% DMSO (stored at −20° C.). Dilute to 8 μM in assay butter.
(§3) Enzyme: Recombinant human 92 kDa gelatinase (MMP-9; APMA (4-aminophenyl mercuric acetate)-activated if necessary) appropriately diluted in assay butter.
(§4) Test Compounds were prepared initially as 10 mM compound solution in 100% DMSO, diluted to 1 mM in 100% DMSO, then serially diluted 3-fold in 100% DMSO across columns 1-10 of a 96-well microtitre plate Assay concentration range, 100 μM (column 1) to 5.1 nM (column 10).
(§5) The assay was performed in a total volume of 100 μL per well in 96-well microfilm plates. Activated enzyme (20 μL) was added to the wells followed by 20 μL of assay butter. Appropriate concentrations of test compounds dissolved in 10 μL of DMSO were then added followed by 50 μL of McaPLGLDpaAR (8 μM, prepared by dilution of DMSO stock in assay butter). For each as say ten concentrations of test compound were examined in duplicate. Control wells lack either enzyme or test compound. The reactions were incubated at 37° C. for 2 hours. The fluorescence at 405 nm was measured immediately with an SLT Fluostar fluorometer (SL T Labinstruments GmbH, Grödig, Austria) using 320 nm excitation, without stopping the reaction.
(§6) The effect of the test compound was determined from the dose response curve generated by the 10 duplicate concentrations of inhibitor. The IC50 (the concentration of compound required to give a 50% decrease in enzyme activity) was obtained by fitting data to the equation, Y=a+((b−a)/(1+(c/X)^d)). (Y=inhibition achieved for a particular dose; X=the dose in nM; a=minimum y or zero % inhibition; b=maximum y or 100% inhibition; c=is the IC50; d=is the slope). The result was rounded to one significant figure.
(§7) Compounds of the invention were tested for inhibitory activity against collagenase (MMP-1) in an assay using a coumarin-labelled peptide substrate, (7-methoxycoumarin-4-yl)acetyl-Pro-Leu-Gly-Leu-(3-[2,4-dinitrophenyl]-L-2,3diaminopropionyl)-Ala-Arg-NH2 (Mca PLGLDpaAR) (Knight et al, 1992, above). The protocol for this assay was as described for the MMP-9 assay above.

gelatinase A (MMP-2) = target: T2, gelatinase A (MMP-2) (Homo sapiens, UniProt P08253); assay: MMP-2 enzyme inhibition assay (coumarin-labelled peptide substrate McaPLGLDpaAR); type: biochemical
T2 sequence (P08253 110-660): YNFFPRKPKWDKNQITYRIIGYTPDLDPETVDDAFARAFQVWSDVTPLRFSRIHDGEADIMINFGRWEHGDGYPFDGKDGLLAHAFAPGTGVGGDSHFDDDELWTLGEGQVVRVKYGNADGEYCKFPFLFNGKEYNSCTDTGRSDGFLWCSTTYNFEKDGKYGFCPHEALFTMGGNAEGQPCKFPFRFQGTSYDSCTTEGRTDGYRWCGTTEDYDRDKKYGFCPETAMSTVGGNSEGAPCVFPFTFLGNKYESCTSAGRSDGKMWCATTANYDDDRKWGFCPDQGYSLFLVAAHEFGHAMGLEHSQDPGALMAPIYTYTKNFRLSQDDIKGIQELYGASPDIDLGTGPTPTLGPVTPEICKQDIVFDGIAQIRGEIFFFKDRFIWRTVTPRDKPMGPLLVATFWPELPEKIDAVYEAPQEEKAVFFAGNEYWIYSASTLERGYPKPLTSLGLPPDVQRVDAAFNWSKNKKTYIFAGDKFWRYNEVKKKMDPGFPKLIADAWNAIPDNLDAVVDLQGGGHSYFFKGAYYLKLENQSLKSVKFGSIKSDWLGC
Protocol: as §1, §2, §3, §4, §5, §6
as §7, with “gelatinase A (MMP-2)” for “collagenase (MMP-1)”

[1] = target: 92 kDa gelatinase (MMP-9) (Homo sapiens, UniProt P14780); assay: MMP-9 enzyme inhibition assay (coumarin-labeled peptide substrate McaPLGLDpaAR); type: biochemical
92 kDa gelatinase (MMP-9), sequence (P14780 107-707 limits assumed): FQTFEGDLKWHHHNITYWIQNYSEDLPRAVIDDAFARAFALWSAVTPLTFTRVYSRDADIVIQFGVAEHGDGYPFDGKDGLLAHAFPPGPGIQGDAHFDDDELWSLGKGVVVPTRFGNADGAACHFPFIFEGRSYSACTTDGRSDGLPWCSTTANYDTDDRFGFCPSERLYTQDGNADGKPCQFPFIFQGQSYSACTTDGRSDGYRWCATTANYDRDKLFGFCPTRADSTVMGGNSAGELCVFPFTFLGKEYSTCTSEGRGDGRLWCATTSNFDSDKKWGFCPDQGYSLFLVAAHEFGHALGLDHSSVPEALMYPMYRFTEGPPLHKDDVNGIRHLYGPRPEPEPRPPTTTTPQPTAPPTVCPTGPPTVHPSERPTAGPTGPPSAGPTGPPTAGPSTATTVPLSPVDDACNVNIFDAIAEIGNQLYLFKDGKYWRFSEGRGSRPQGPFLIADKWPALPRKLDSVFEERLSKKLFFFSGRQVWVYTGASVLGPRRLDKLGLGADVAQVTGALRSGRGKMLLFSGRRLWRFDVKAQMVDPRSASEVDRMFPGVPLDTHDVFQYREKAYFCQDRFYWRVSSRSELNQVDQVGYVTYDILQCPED
Protocol: Compounds of the invention were tested for inhibitory activity against 92 kDa gelatinase (MMP-9) in an assay using a coumarin-labeled peptide substrate, (7-methoxycoumarin-4-yl)acetyl-Pro-Leu-Gly-Leu-(3-[2,4-dinitrophenyl]-L-2,3diaminopropionyl)-Ala-Arg-NH2 (McaPLGLDpaAR) (Knight et al, FEBS Lett. 1992; 263-266).
as §1, §2, §3, §4, §5, §6

metalloelastase (MMP-12) = metalloelastase (MMP-12) (Homo sapiens, UniProt P39900); assay: MMP-12 enzyme inhibition assay (coumarin-labelled peptide substrate McaPLGLDpaAR); type: biochemical
metalloelastase (MMP-12), sequence (P39900 106-470): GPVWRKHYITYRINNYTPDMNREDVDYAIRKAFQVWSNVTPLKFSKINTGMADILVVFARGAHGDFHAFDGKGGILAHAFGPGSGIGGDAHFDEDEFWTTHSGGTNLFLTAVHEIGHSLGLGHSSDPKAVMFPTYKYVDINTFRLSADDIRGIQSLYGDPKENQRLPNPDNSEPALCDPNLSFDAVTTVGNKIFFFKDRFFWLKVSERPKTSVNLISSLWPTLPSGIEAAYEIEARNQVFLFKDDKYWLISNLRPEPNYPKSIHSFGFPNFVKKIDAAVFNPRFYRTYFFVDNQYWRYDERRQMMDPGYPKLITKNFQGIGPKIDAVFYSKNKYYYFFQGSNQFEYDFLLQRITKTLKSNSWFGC
Protocol: as §1, §2, §3, §4, §5, §6
Compounds of the invention were tested for inhibitory activity against metalloelastase (MMP-12) in an assay using a coumarin-labelled peptide substrate, (7-methoxycoumarin-4-yl)acetyl-Pro-Leu-Gly-Leu-(3-[2,4-dinitrophenyl]-L-2,3-diaminopropionyl)-Ala-Arg-NH2 (McaPLGLDpaAR) (Knight et al, 1992, above). The protocol for this assay was as described for the MMP-9 assay above.

[2] = tested on: IL-2-induced peritoneal recruitment of lymphocytes; assay: IL-2-induced peritoneal recruitment of lymphocytes; type: in vivo, C3H/HEN mice; settings: mice, 15 min prior to IL-2, cells collected 24 h after IL-2
Protocol: Administration of IL-2 intraperitoneally causes migration of lymphocytes into the intraperitoneal cavity. This is a model for the cellular migration that occurs during inflammation.
C3H/HEN mice (Elevage Janvier, France) were intraperitoneally injected with IL-2 (Serono Pharmaceutical Research Institute, 20 μg/kg, in saline).
Compounds of the invention were suspended in 0.5% carboxymethylcellulose (CMC)/0.25% tween-20 and were administered by s.c. or p.o. route (10 ml/kg) 15 min prior to administration of IL-2.
Twenty-four hours after administration of IL-2, peritoneal white blood cells were collected by 3 successive lavages of the peritoneal cavity with 5 ml phosphate buffered saline (PBS)-1 mM EDTA (+4° C.). The suspension was centrifuged (1700 g×10 min at +4° C.). The resulting pellet was suspended in 1 ml PBS-1 mM EDTA.
Lymphocytes were identified and counted using a Beckman/Coulter counter.
The animals were divided into 6 groups (6 mice each group):
Group 1: (baseline) received 0.5% CMC/0.25% tween-20 (vehicle of compound of the invention) and saline (vehicle of IL-2);
Group 2: (control IL-2) received 0.5% CMC/0.25% tween-20 and injection of IL-2;
Group 3: Experimental group (Compound of the invention Dose 1) received a compound of the invention and injection of IL-2;
Group 4: Experimental group (Compound of the invention Dose 2) received a compound of the invention and injection of IL-2;
Group 5: Experimental group (Compound of the invention Dose 3) received a compound of the invention and injection of IL-2;
Group 6: Reference group received reference compound dexamethasone and injection of IL-2.
Inhibition of lymphocyte recruitment was calculated as follows:
Where Ly 1=Number of lymphocytes in group 1 (E3/μl), Ly 2=Number of lymphocytes in group 2 (E3/μl), Ly X=Number of lymphocytes in group X (3-5) (E3/μl).

[3] = Table 1, compounds of Formula (I), read-out: MMP-1 IC50
[4] = Table 1, compounds of Formula (I), read-out: MMP-2 IC50
[5] = Table 1, compounds of Formula (I), read-out: MMP-9 IC50
[6] = Table 1, compounds of Formula (I), read-out: MMP-12 IC50
[7] = dose 1 mg/kg po, Table 3, Formula (I)
[8] = dose 1 mg/kg po, Table 4, Formula (VI)

Row | Structure (SMILES) | IC50 (collagenase (MMP-1); [3]) [nM] | IC50 (gelatinase A (MMP-2); [4]) [nM] | IC50 [1, 5] [nM] | IC50 (metalloelastase (MMP-12); [6]) [nM] | % inhibition of IL-2-induced peritoneal recruitment of lymphocytes [2, 7] [%] | % inhibition of IL-2-induced peritoneal recruitment of lymphocytes [2, 8] [%] | also measured
1 | CCOc1ccc(CCCC(C(=O)N2CCN(c3ccccn3)C[C@H]2C)[C@H](O)C(=O)NO)cc1 (mixture of isomers) [Example 6, (2S,3S)-6-(4-ethoxyphenyl)-N,2-dihydroxy-3-{[(2R)-2-methyl-4-pyridin-2-ylpiperazin-1-yl]-carbonyl}hexanamide] | > 5000 | 8 | 22 | 20 | 46 | – | % inhibition of IL-2-induced peritoneal recruitment of lymphocytes ([2]; dose 3 mg/kg po, Table 3, Formula (I)): 65%
2 | CC(C)C[C@H](C(=O)N1CCN(c2ccccn2)C[C@H]1C)[C@H](O)C(=O)NO (single isomer, unassigned) [Example 4] | 301 | 4 | 12 | 17 | 39 | – | –
3 | CCOc1ccc(CCC[C@@H](C(=O)N2CCC(Nc3ccccc3)CC2)[C@H](O)C(=O)NO)cc1 [Example 20, (2S,3R)-3-[(4-anilinopiperidin-1-yl)carbonyl]-6(4-ethoxyphenyl)-N,2-dihydroxyhexanamide] | – | – | – | – | – | 38 | IC50 (collagenase (MMP-1)): > 5000 nM; IC50 (gelatinase A (MMP-2)): 82 nM; IC50 [1]: 37 nM; IC50 (metalloelastase (MMP-12)): 29 nM
4 | CCOc1ccc(CCC[C@@H](C(=O)N2CCN(CCN3CCOCC3)CC2)[C@H](O)C(=O)NO)cc1 [Example 37, (2S,3R)-6-(4-ethoxyphenyl)-N,2-dihydroxy-3-{[4-(2-morpholin-4-ylethyl)piperazin-1-yl]-carbonyl}hexanamide] | – | – | – | – | – | 42 | IC50 (collagenase (MMP-1); Table 2, compounds of Formula (VI), read-out: MMP-1 IC50): > 5000 nM; IC50 (gelatinase A (MMP-2); Table 2, compounds of Formula (VI), read-out: MMP-2 IC50): 65 nM; IC50 ([1]; Table 2, compounds of Formula (VI), read-out: MMP-9 IC50): 52 nM; IC50 (metalloelastase (MMP-12); Table 2, compounds of Formula (VI), read-out: MMP-12 IC50): 23 nM
5 | CCOc1ccc(CCC[C@@H](C(=O)N2C[C@@H]3C[C@H]2CN3c2ccc(F)cc2)[C@H](O)C(=O)NO)cc1 [Example 47, (2S,3R)-6-(4-ethoxyphenyl)-3-{[(1S,4S)-5-(4-fluorophenyl)-2,5-diazabicyclo[2.2.1]hept-2-yl]carbonyl}-N,2-dihydroxyhexanamide] | – | – | – | – | – | 41 | –
6 | CC(C)C[C@H](C(=O)N1CCN(c2ccc(-c3ccccc3)cc2)C[C@H]1C)[C@H](O)C(=O)NO [Example 53, (2S,3S)-3-{[(2R)-4-biphenyl-4-yl-2-methylpiperazin-1-yl]carbonyl}-N,2-dihydroxy-5-methylhexanamide] | > 5000 | 7.5 | 7 | 5 | 61 | – | –
7 | CC(C)C[C@H](C(=O)N1CC=C(c2ccccc2)CC1)[C@@H](O)C(=O)NO [Example 61, (2R,3S)-N,2-dihydroxy-5-methyl-3-[(4-phenyl-3,6-dihydropyridin-1(2H)-yl)carbonyl]hexanamide] | > 5000 | 8 | 48 | 2 | 67 | – | –

Source: US8247437B2, “N-hydroxyamide derivatives and use thereof” (Merck Serono SA, priority 2004, dated 2012)
